Key:
Format in all cases: biochemical
GSK3-β = target: T1, GSK3-β (Homo sapiens, UniProt P49841); experiment: GSK3-β kinase assay; conditions: ATP 30 μM; His-GSK3B 2.4 nM; Caliper LabChip 3000; read-out: GSK-3β IC50
T1 construct: His
Protocol: (§1) The assays were performed in U-bottom 384-well plates. The final assay volume was 30 μl prepared from 15 μl additions of enzyme and substrates (fluoresceinated peptide FL-GSK substrate and ATP) and test compounds in assay buffer (100 mM HEPES pH 7.2, 10 mM MgCl2, 0.015% Brij35, 25 mM β-glycerolphosphate and 4 mM DTT). The reaction was initiated by the combination of GSK3-β with substrates and test compounds. The reaction was incubated at room temperature for 60 min. and terminated by adding 30 μl of 35 mM EDTA to each sample. The reaction mixture was analyzed on the Caliper LabChip 3000 (Caliper, Hopkinton, Mass.) by electrophoretic separation of the fluorescent substrate and phosphorylated product Inhibition data were calculated by comparison to no enzyme control reactions for 100% inhibition and vehicle-only reactions for 0% inhibition. The final concentration of reagents in the assays is ATP, 30 μM; FL-GSK substrate, 1.5 μM; His-GSK3B, 2.4 nM; and DMSO, 1.6%.

FLT3 = target: T2, FLT3 (Homo sapiens, UniProt P36888); experiment: FLT3 kinase assay; conditions: ATP 200 μM; FLT3 4.5 nM; Caliper LabChip 3000
T2 sequence (P36888 27-993): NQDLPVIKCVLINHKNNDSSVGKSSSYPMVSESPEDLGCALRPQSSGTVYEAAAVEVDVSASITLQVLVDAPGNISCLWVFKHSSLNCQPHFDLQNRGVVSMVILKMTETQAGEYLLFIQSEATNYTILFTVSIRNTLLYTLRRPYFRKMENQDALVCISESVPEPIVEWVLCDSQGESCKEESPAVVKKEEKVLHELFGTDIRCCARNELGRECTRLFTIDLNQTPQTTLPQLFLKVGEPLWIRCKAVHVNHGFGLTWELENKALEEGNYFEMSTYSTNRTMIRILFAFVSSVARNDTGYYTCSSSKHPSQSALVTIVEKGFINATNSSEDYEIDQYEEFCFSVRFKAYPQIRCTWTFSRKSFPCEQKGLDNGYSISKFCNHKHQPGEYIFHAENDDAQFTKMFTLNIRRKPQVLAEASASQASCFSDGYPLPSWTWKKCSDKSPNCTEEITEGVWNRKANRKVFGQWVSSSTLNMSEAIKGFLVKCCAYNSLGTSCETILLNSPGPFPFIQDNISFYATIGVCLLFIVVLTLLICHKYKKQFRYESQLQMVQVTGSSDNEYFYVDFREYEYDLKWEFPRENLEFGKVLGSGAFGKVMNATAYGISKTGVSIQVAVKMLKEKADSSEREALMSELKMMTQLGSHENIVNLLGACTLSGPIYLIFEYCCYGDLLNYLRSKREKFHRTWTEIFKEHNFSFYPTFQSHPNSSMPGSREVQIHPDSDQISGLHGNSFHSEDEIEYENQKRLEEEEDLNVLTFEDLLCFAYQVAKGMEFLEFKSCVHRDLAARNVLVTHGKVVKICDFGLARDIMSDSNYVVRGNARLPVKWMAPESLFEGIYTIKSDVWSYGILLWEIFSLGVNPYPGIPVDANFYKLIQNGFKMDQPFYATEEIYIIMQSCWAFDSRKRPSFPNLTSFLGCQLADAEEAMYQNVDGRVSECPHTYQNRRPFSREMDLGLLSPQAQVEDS
Protocol: (§2) The assays were performed in U-bottom 384-well plates. The final assay volume was 30 μl prepared from 15 μl additions of enzyme and substrates (fluoresceinated FLT3 substrate peptide and ATP) and test compounds in assay buffer (100 mM HEPES pH 7.4, 10 mM MgCl2, 0.015% Brij35 and 4 mM DTT). The reaction was initiated by the combination of FLT3 with substrates and test compounds. The reaction was incubated at room temperature for 60 min. and terminated by adding 30 μl of 35 mM EDTA to each sample. The reaction mixture was analyzed on the Caliper LabChip 3000 by electrophoretic separation of the fluorescent substrate and phosphorylated product. Inhibition data were calculated by comparison to no enzyme control reactions for 100% inhibition and vehicle-only reactions for 0% inhibition. The final concentration of reagents in the assays is ATP, 200 μM, FL-peptide, 1.5 μM; FLT3, 4.5 nM and DMSO, 1.6%. Dose response curves were generated to determine the concentration required inhibiting 50% of kinase activity (IC50). Compounds were dissolved at 10 mM in dimethylsulfoxide (DMSO) and evaluated at eleven concentrations, each in duplicate. IC50 values were derived by non-linear regression analysis.

IGF1-receptor = IGF1-receptor (Homo sapiens, UniProt P08069); experiment: IGF1-Receptor Tyrosine Kinase Assay; conditions: ATP 25 μM; IGF1-Receptor 14 nM; Caliper LabChip 3000; read-out: IGF1R IC50
IGF1-receptor, sequence (P08069 31-1367): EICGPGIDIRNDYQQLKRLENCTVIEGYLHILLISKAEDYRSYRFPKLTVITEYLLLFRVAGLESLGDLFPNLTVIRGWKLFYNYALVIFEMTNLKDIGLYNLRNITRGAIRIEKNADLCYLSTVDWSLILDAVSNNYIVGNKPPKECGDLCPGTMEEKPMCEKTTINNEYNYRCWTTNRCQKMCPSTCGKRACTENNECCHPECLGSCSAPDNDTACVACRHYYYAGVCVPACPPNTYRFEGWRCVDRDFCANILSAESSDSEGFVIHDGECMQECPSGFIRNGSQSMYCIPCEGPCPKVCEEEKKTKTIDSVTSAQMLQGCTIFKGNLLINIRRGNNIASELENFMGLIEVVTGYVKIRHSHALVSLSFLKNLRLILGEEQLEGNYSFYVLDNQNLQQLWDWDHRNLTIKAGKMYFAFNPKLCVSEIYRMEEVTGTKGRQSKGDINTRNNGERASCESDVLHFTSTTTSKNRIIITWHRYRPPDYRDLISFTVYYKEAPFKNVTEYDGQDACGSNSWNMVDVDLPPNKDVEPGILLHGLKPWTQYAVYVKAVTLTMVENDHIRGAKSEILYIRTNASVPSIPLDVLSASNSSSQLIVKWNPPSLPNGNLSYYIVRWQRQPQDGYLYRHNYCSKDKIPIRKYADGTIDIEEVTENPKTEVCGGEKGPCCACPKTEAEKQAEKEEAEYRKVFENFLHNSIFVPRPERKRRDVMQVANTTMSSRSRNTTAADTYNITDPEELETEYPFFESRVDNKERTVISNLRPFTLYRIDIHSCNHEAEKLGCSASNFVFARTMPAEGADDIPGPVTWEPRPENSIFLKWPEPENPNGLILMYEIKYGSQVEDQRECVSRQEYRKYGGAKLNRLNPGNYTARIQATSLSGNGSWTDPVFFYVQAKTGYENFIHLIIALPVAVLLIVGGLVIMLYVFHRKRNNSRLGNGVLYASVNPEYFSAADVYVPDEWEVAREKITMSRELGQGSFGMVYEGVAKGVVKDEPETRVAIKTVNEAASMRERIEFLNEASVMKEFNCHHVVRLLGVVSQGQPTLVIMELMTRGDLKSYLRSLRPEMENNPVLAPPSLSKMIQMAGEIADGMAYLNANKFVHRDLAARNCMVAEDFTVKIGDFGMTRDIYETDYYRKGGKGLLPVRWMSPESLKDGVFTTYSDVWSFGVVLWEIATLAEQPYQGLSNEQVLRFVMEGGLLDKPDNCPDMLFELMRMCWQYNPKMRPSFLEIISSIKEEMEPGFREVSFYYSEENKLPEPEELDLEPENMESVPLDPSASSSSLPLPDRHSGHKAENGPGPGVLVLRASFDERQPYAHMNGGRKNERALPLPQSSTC
Protocol: D. IGF1-Receptor Tyrosine Kinase Assay
as §2, with “(fluoresceinated IGF1R” for “(fluoresceinated FLT3”, “mM MnCl2,” for “mM MgCl2,”, “of IGF1-receptor” for “of FLT3”, “ATP, 25 μM;” for “ATP, 200 μM,”, “μM; IGF1-Receptor, 14 nM;” for “μM; FLT3, 4.5 nM”, “regression analysis” for “regression analysis.”

JAK2 = JAK2 (Homo sapiens, UniProt O60674); experiment: JAK2 kinase assay; conditions: ATP 30 μM; activated JAK2; Caliper LabChip 3000
JAK2, sequence (O60674 whole entry): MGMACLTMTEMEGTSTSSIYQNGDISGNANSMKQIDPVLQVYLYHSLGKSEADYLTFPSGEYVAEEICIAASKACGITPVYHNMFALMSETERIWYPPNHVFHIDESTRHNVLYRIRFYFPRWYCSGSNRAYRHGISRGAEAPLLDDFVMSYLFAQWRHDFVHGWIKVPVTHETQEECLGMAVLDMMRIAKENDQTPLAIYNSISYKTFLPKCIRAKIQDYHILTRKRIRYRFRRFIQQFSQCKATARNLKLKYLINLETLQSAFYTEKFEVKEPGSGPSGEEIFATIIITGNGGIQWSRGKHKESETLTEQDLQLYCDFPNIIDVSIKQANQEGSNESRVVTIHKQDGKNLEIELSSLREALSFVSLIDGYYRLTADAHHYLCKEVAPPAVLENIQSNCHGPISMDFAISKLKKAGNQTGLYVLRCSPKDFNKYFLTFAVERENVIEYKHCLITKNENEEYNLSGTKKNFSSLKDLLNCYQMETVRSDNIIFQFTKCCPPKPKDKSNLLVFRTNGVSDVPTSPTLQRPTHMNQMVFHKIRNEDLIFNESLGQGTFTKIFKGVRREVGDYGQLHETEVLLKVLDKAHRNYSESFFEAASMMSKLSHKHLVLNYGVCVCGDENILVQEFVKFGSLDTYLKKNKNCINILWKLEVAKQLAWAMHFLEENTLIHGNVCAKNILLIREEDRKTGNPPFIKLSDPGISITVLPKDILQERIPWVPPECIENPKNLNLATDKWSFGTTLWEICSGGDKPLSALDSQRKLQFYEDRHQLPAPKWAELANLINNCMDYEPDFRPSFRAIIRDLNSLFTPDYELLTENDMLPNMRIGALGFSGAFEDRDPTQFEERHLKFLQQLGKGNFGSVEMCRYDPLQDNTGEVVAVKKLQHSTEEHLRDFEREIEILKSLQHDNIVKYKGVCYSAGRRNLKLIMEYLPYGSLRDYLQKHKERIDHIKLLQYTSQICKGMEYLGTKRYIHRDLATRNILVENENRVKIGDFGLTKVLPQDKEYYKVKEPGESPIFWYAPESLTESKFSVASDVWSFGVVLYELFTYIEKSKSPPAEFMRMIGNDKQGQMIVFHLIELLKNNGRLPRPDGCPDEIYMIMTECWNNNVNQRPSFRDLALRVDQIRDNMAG
Protocol: as §1, with “FL-JAK2” for “FL-GSK”, “activated JAK2” for “GSK3-β”, “product.” for “product”, “FL-JAK2 peptide,” for “FL-GSK substrate,”, “[…], 2.6” for “His-GSK3B, 2.4”

CDK2E = CDK2E (Homo sapiens, UniProt P24941); experiment: CDK 2/Cyclin E Kinase Assay; conditions: ATP 30 μM; CDK2E 0.2 nM; Caliper LabChip 3000
Protocol: A. CDK 2/Cyclin E Kinase Assay
as §2, with “(fluoresceinated CDK2E” for “(fluoresceinated FLT3”, “of bacterially expressed, CDK2E” for “of FLT3”, “phosphorylated product” for “phosphorylated product.”, “ATP, 30 μM;” for “ATP, 200 μM,”, “μM; CDK2E, 0.2 nM;” for “μM; FLT3, 4.5 nM”

GST-Met = GST-Met (Homo sapiens, UniProt P08581); experiment: Met Kinase Assay; conditions: 1 μM ATP; 33P γ-ATP, poly(Glu/Tyr); 1 h at 30° C.
GST-Met, sequence (P08581 25-1390): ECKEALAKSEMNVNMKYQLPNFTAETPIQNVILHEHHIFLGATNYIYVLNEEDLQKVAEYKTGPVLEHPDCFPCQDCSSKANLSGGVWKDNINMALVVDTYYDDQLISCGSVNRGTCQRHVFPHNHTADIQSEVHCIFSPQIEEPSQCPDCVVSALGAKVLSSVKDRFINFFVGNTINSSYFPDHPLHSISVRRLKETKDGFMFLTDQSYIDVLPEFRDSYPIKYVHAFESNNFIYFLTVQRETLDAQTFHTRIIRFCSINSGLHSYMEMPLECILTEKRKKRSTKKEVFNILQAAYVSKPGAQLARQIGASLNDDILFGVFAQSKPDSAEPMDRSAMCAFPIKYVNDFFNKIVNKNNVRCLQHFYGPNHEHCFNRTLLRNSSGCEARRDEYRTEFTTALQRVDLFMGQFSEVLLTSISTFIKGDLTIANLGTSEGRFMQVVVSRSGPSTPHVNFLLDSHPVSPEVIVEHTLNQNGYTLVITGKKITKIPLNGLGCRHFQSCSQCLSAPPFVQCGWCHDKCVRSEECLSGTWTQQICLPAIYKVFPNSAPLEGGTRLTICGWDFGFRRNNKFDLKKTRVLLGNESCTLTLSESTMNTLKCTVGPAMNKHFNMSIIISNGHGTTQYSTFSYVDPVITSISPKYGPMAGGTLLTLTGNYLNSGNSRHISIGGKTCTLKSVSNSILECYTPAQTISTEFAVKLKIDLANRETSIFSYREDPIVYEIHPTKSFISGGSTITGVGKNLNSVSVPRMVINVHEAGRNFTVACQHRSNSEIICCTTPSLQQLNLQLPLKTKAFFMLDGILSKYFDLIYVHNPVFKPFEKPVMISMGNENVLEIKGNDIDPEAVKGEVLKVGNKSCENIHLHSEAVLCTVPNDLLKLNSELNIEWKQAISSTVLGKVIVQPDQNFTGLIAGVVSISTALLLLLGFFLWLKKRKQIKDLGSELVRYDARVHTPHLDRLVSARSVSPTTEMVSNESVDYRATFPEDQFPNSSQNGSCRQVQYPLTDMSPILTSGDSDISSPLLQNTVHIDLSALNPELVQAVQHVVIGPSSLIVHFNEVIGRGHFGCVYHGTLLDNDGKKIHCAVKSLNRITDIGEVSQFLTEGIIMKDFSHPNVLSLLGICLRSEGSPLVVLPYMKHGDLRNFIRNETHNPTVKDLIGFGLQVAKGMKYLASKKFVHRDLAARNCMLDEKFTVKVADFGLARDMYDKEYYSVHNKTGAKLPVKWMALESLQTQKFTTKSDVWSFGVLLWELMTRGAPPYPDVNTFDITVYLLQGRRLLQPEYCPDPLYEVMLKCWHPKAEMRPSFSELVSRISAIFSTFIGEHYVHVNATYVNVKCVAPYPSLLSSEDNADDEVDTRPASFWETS
Protocol: Kinase reactions consisted of 0.75 ng of baculovirus expressed GST-Met, 3 ug poly(Glu/Tyr) (Sigma), 0.12 μCi 33P γ-ATP, 1 μM ATP in 30 μl kinase buffer (20 mm TRIS-C1, 5 mM MnCl2, 0.1 mg/ml BSA, 0.5 mM DTT). Reactions were incubated for 1 h at 30° C. and stopped by the addition of cold trichloroacetic acid (TCA) to a final concentration 8%. TCA precipitates were collected onto GF/C unifilter plates using a Filtermate universal harvester and the filters were quantitated using a TopCount 96-well liquid scintillation counter. Dose response curves were generated to determine the concentration required to inhibit 50% of kinase activity (IC50). Compounds were dissolved at 10 mM in dimethylsulfoxide (DMSO) and evaluated at seven concentrations, each in triplicate.

T1 sequence (P49841 whole entry): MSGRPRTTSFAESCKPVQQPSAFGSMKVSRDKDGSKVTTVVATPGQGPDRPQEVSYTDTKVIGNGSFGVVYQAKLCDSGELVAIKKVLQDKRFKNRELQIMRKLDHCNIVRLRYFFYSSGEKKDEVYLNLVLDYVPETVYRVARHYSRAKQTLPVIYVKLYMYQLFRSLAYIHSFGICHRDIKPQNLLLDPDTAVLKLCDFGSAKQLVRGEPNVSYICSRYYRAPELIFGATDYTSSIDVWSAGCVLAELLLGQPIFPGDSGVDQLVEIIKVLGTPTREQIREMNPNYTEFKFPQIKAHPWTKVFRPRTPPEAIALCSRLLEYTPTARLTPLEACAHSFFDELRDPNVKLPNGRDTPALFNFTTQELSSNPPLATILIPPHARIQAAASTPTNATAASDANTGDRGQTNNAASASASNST

| SMILES | IC50 (GSK3-β) | IC50 (FLT3) | IC50 (IGF1-receptor) | IC50 (JAK2) | IC50 (CDK2E) | IC50 (GST-Met) |
| --- | --- | --- | --- | --- | --- | --- |
| CC(C)(C)OC(=O)N1CCC(C(=O)N2CCC[C@@H]2c2nc(Nc3cc(C4CC4)[nH]n3)c3cccn3n2)CC1 [Example 13, (R)-tert-Butyl 4-(2-(4-(5-cyclopropyl-1H-pyrazol-3-ylamino)pyrrolo[1,2-f][1,2,4]triazin-2-yl)pyrrolidine-1-carbonyl)piperidine-1-carboxylate] | 4450 nM | 308 nM | 314 nM | 22000 nM | 17400 nM | – |
| O=C(c1nccs1)N1CCC[C@@H]1c1nc(Nc2cc(C3CC3)[nH]n2)c2cccn2n1 [Example 15, (R)-(2-(4-(5-Cyclopropyl-1H-pyrazol-3-ylamino)pyrrolo[1,2-f][1,2,4]triazin-2-yl)pyrrolidin-1-yl)(thiazol-2-yl)methanone] | 11 nM | 24 nM | 2520 nM | 324 nM | 162 nM | 6330 nM |
| O=C(c1nccs1)N1CCC[C@H]1c1nc(Nc2cc(C3CC3)[nH]n2)c2cccn2n1 [Example 2, (S)-(2-(4-(5-Cyclopropyl-1H-pyrazol-3-ylamino)pyrrolo[1,2-f][1,2,4]triazin-2-yl)pyrrolidin-1-yl)(thiazol-2-yl)methanone] | 24 nM | 1 nM | 5 nM | – | 88 nM | 170 nM |
| O=C(c1cnccn1)N1CCC[C@@H]1c1nc(Nc2cc(C3CC3)[nH]n2)c2cccn2n1 [Example 12, (R)-(2-(4-(5-Cyclopropyl-1H-pyrazol-3-ylamino)pyrrolo[1,2-f][1,2,4]triazin-2-yl)pyrrolidin-1-yl)(pyrazin-2-yl)methanone] | 3 nM | 6 nM | 4930 nM | 4480 nM | 256 nM | 10800 nM |
| CC(=O)N1CCC[C@H]1c1nc(Nc2cc(C3CC3)[nH]n2)c2cccn2n1 [Example 4, (S)-1-(2-(4-(5-Cyclopropyl-1H-pyrazol-3-ylamino)pyrrolo[1,2-f][1,2,4]-triazin-2-yl)pyrrolidin-1-yl)ethanone] | 20 nM | 1 nM | 135 nM | – | 5 nM | 1780 nM |
| O=C(C1CCNCC1)N1CCC[C@H]1c1nc(Nc2cc(C3CC3)[nH]n2)c2cccn2n1 [Example 6, (S)-(2-(4-(5-Cyclopropyl-1H-pyrazol-3-ylamino)pyrrolo[1,2-f][1,2,4]triazin-2-yl)pyrrolidin-1-yl)(piperidin-4-yl)methanone] | 92 nM | 97 nM | 4050 nM | 10700 nM | 615 nM | 10500 nM |
| O=C(c1ccc(F)nc1)N1CCC[C@H]1c1nc(Nc2cc(C3CC3)[nH]n2)c2cccn2n1 [Example 1, (S)-(2-(4-(5-Cyclopropyl-1H-pyrazol-3-ylamino)pyrrolo[1,2-f][1,2,4]triazin-2-yl)pyrrolidin-1-yl)(6-fluoropyridin-3-yl)methanone] | 290 nM | 29 nM | – | – | 1870 nM | 28 nM |
| O=C(c1cc[nH]n1)N1CCC[C@H]1c1nc(Nc2cc(C3CC3)[nH]n2)c2cccn2n1 [Example 7, (S)-(2-(4-(5-Cyclopropyl-1H-pyrazol-3-ylamino)pyrrolo[1,2-f][1,2,4]triazin-2-yl)pyrrolidin-1-yl)(1H-pyrazol-3-yl)methanone] | 51 nM | 4 nM | 68 nM | 36 nM | 54 nM | 1170 nM |

Reference: patent US8198438B2, “Pyrrolotriazine kinase inhibitors” (Bristol-Myers Squibb Company, priority 2007, dated 2012)
